Test systems include CCRF-CEM; EKVX; HCC 2998; HCT-116; HOP-92; KM12; M14; MCF7; MOLT-4; NCI-H460; NCI/ADR-RES; OVCAR-3; OVCAR-5; SF-268; SF-295; SK-OV-3; U-251; UACC-257; UACC-62; UO-31.
Holding throughout (test): inhibition of tumour cell growth, NCI panel, 48 h

SMILES strings stand for the structures.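 Tested at 5 concentrations; 48 h exposure; 96-well plates; endpoints linearly interpolated, else capped at highest concentration. The concentration for 50% growth inhibition is given as GI50.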 Calls of active or inactive are those of the source. No stated cut-off is given here; in the data, active = GI50 up to about 1.1 µM and inactive = higher. Some results are limits rather than exact numbers.

`COc1ccc2nc(-n3c(/C=C/c4ccccc4O)nc4ccccc4c3=O)sc2c1`: the GI50 was 16.1 µM (inactive) in the test on CCRF-CEM; 8.51 µM (inactive) in the test with EKVX; > 100 µM (inactive) with HCC 2998; 25.5 µM (inactive) in the test on HCT-116; 60.8 µM (inactive) with HOP-92; 64.4 µM (inactive) in the test with KM12. The GI50 in the test on M14 was 33.6 µM (inactive); in the test on MCF7 it was 47.5 µM (inactive); in the test on MOLT-4, 32.9 µM (inactive); in the test on NCI-H460 it was > 100 µM (inactive); with NCI/ADR-RES, 55.3 µM (inactive); in the test with OVCAR-3, > 100 µM (inactive). In addition, the GI50 with OVCAR-5 was > 100 µM (inactive); in the test with SF-268, > 100 µM (inactive); with SF-295, 80.5 µM (inactive); with SK-OV-3 it was > 100 µM (inactive); in the test with U-251 it was > 100 µM (inactive); in the test with UACC-257, > 100 µM (inactive). Also, the GI50 with UACC-62 was 61.5 µM (inactive); in the test on UO-31, 64.6 µM (inactive).

As for `C=C1C(=O)O[C@@H]2[C@H](O)[C@@H](C)[C@@H]3C=CC(=O)[C@@]3(C)[C@@H](OC(=O)/C(C)=C/C)[C@H]12`, the GI50 with CCRF-CEM is 0.254 µM (active); with EKVX, 0.774 µM (active); in the test on HCC 2998, 0.656 µM (active); in the test on HCT-116 it was 0.3 µM (active); in the test on HOP-92, 0.548 µM (active); in the test on KM12, 1.01 µM (active). Further, the GI50 in the test with MCF7 was 0.518 µM (active); with MOLT-4, 0.344 µM (active); in the test with NCI-H460, 0.412 µM (active); in the test on NCI/ADR-RES, 0.811 µM (active); with OVCAR-3 it was 0.719 µM (active); in the test with OVCAR-5, 3.81 µM (inactive). For the same compound, the GI50 in the test on SF-268 is 0.437 µM (active); with SF-295 it was 3.75 µM (inactive); in the test with SK-OV-3, 2.39 µM (inactive); in the test on U-251, 0.733 µM (active); with UACC-257, 0.718 µM (active); with UACC-62, 0.342 µM (active). The GI50 in the test with UO-31 was 5.31 µM (inactive).

With `Nc1nc(Cl)nc2c1ncn2C1CC(O)C(CO)O1` (stereo not given), the GI50 in the test with CCRF-CEM was 0.0713 µM (active); in the test with EKVX, 1.21 µM (inactive); in the test with HCC 2998, 19.3 µM (inactive); in the test with HCT-116 it was 4.04 µM (inactive); in the test with HOP-92, 1.3 µM (inactive); in the test with KM12, > 100 µM (inactive). In addition, the GI50 is 9.75 µM (inactive) in the test on MCF7; 0.15 µM (active) in the test with MOLT-4; 7.28 µM (inactive) in the test on NCI-H460; 0.103 µM (active) in the test on NCI/ADR-RES; 25.8 µM (inactive) in the test with OVCAR-3; 1.78 µM (inactive) in the test on OVCAR-5. Besides, the GI50 was 26.4 µM (inactive) in the test with SF-268; 67.9 µM (inactive) in the test with SF-295; 52.7 µM (inactive) with SK-OV-3; 10.4 µM (inactive) in the test with U-251; 1.76 µM (inactive) with UACC-257; 0.463 µM (active) in the test on UACC-62. Further, the GI50 with UO-31 was 0.701 µM (active).

On to `Clc1nc(-[n+]2ccc(-c3ccncc3)cc2)nc(Nc2ccccc2)c1Cl`, for which the GI50 with CCRF-CEM is 27.9 µM (inactive); in the test on EKVX it was 83.8 µM (inactive); in the test with HCC 2998 it was > 100 µM (inactive); in the test with HCT-116, > 100 µM (inactive); in the test with HOP-92, > 100 µM (inactive); in the test with KM12, > 100 µM (inactive). Further, the GI50 is > 100 µM (inactive) with M14; 33.1 µM (inactive) in the test with MCF7; 49.1 µM (inactive) with MOLT-4; > 100 µM (inactive) in the test with NCI-H460; > 100 µM (inactive) in the test on NCI/ADR-RES; > 100 µM (inactive) with OVCAR-3. For the same compound, the GI50 was > 100 µM (inactive) in the test on OVCAR-5; > 100 µM (inactive) in the test with SF-268; > 100 µM (inactive) in the test on SK-OV-3; 70.5 µM (inactive) in the test on U-251; > 100 µM (inactive) in the test on UACC-257; > 100 µM (inactive) in the test on UACC-62. In addition, the GI50 in the test on UO-31 is > 100 µM (inactive).

On to `COc1ccc(NC(C)=O)cc1N1C(=O)/C(=C\c2ccccc2)SC1c1cc(OC)c(OC)c(OC)c1` (stereo not given), for which the GI50 in the test with CCRF-CEM is 21.2 µM (inactive); in the test on EKVX, 27.2 µM (inactive); with HCC 2998, 16.3 µM (inactive); in the test on HCT-116, 14.4 µM (inactive); in the test on HOP-92, 14.6 µM (inactive); in the test with KM12, 16.3 µM (inactive). Also, the GI50 was 35.6 µM (inactive) with M14; 28.5 µM (inactive) in the test on MCF7; 25.6 µM (inactive) with MOLT-4; 15.5 µM (inactive) in the test with NCI-H460; 17.4 µM (inactive) with NCI/ADR-RES; 29.4 µM (inactive) with OVCAR-3. The GI50 is 17.7 µM (inactive) in the test with SF-268; 42.1 µM (inactive) in the test on SF-295; 41 µM (inactive) in the test on SK-OV-3; 32.5 µM (inactive) in the test with U-251; > 100 µM (inactive) in the test on UACC-257; 30.4 µM (inactive) in the test on UACC-62. The GI50 in the test with UO-31 is 33.7 µM (inactive).

As to `CC(C)(C)c1ccc2c(c1)OP1(Oc3c(Cl)cc(Cl)c4cccnc34)(O2)Oc2ccc(C(C)(C)C)cc2O1`, the GI50 with CCRF-CEM was 3.12 µM (inactive); in the test with EKVX, 5.16 µM (inactive); with HCC 2998, 11.3 µM (inactive); in the test on HCT-116, 5.22 µM (inactive); in the test on HOP-92 it was 2.4 µM (inactive); in the test with KM12, 6.87 µM (inactive). The GI50 is 4.58 µM (inactive) in the test with MCF7; 2.81 µM (inactive) in the test with MOLT-4; 3.8 µM (inactive) in the test on NCI-H460; 8.11 µM (inactive) in the test on NCI/ADR-RES; 4.78 µM (inactive) in the test with OVCAR-3; 13.7 µM (inactive) with OVCAR-5. The GI50 is 7.16 µM (inactive) in the test with SF-268; 5.42 µM (inactive) in the test with SF-295; 11.9 µM (inactive) in the test on SK-OV-3; 4.63 µM (inactive) in the test with U-251; 4.03 µM (inactive) in the test with UACC-257; 5.37 µM (inactive) in the test on UACC-62. For the same compound, the GI50 with UO-31 is 5.08 µM (inactive).
